How the values were obtained:
IRAK4 = target: T1, IRAK4 (Homo sapiens, UniProt Q9NWZ3); test: IRAK4 enzymatic assay (ADP-Glo luminescence); assay type: biochemical; details: purified human recombinant His-TEV-IRAK4 (1-460), ATP 2 μM
T1 construct: His-TEV-IRAK4 (1-460); His (N); TEV cleavage site (N)
T1 sequence (Q9NWZ3 1-460): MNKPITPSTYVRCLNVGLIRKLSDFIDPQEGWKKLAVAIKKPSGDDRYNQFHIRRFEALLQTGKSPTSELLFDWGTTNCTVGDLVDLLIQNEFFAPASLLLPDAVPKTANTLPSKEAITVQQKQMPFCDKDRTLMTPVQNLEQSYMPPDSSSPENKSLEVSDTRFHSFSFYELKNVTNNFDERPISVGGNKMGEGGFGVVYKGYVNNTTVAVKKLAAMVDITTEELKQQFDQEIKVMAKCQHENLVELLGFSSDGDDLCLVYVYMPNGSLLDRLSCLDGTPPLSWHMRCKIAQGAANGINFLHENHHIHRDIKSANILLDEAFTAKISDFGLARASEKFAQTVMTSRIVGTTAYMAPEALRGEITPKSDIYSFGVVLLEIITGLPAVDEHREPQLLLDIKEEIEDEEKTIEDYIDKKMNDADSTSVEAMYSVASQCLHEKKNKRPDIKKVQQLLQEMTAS
Outline: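 Recombinant His-TEV-IRAK4 (1-460) at 0.3 μg/ml preincubated 15 min at RT with compounds (10 μM to 0.5 nM) in Hepes pH 7.0 buffer with MgCl2/MnCl2. Reaction started with 2 μM ATP and 300 nM STK1-biotin peptide, run 2 h at RT. ADP formed read by ADP-Glo luminescence.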

IRAK1 = target: T2, IRAK1 (Homo sapiens, UniProt P51617); test: IRAK1 enzymatic assay (ADP-Glo luminescence); assay type: biochemical; details: purified human recombinant His-TEV-IRAK1 (194-712)
T2 construct: His-TEV-IRAK1 (194-712); His (N); TEV cleavage site (N)
Outline: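 Recombinant human His-TEV-IRAK1 (194-712), 0.3 μg/ml, preincubated 15 min at RT with compounds (10 μM to 0.5 nM) in 50 mM Hepes pH 7.0, 10 mM MgCl2, 2 mM DTT, 0.1% BSA. ATP-started reaction run 2 hours at RT; ADP formed from ATP hydrolysis/autophosphorylation read by ADP-Glo luminescence.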

T2 sequence (P51617 194-712): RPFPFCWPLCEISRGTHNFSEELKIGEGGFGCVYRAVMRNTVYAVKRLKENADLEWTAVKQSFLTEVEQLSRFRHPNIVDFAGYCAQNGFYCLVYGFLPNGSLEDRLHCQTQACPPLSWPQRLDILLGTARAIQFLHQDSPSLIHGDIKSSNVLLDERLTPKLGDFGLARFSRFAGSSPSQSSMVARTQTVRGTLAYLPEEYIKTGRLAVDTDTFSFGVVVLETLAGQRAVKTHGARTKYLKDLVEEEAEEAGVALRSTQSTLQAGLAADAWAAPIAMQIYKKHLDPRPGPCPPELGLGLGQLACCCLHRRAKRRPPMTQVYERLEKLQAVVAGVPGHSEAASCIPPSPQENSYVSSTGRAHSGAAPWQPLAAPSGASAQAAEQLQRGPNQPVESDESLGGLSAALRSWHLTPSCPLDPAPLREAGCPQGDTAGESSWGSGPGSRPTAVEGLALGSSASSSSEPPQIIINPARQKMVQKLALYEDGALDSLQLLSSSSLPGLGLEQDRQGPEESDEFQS

With CC1(C)C(=O)N(c2ccc3c(c2)[nH]/c(=N\C(=O)c2cccc(C(F)(F)F)c2)n3CCCO)CCN1C1CC1 [Compound 194, (E)-N-(5-(4-cyclopropyl-3,3-dimethyl-2-oxopiperazin-1-yl)-1-(3-hydroxypropyl)-1H-benzo[d]imidazol-2(3H)-ylidene)-3-(trifluoromethyl)benzamide] the IC50 (IRAK4) was ≤ 100 nM and the IC50 (IRAK1) was 100 to 1000 nM.
In the case of C[C@H](CCO)n1/c(=N/C(=O)c2cccc(C(F)F)c2)[nH]c2cc(N3CCOCC3=O)ccc21 [Compound 242, (R,E)-3-(difluoromethyl)-N-(1-(4-hydroxybutan-2-yl)-5-(3-oxomorpholino)-1H-benzo[d]imidazol-2(3H)-ylidene)benzamide], the IC50 (IRAK4) is reported as ≤ 100 nM and the IC50 (IRAK1) is reported as ≤ 100 nM.
In the case of O=C(/N=c1\[nH]c2cc(N3CCCOCC3=O)ccc2n1CCCO)c1cccc(C(F)F)c1 [Example 186, (E)-3-(difluoromethyl)-N-(1-(3-hydroxypropyl)-5-(3-oxo-1,4-oxazepan-4-yl)-1H-benzo[d]imidazol-2(3H)-ylidene)benzamide], the IC50 (IRAK4) is reported as ≤ 100 nM and the IC50 (IRAK1) is reported as ≤ 100 nM.
For O=C(/N=c1\[nH]c2cc(N3CCOCCC3=O)ccc2n1CCCO)c1cccc(C(F)F)c1 [Example 187, (E)-3-(difluoromethyl)-N-(1-(3-hydroxypropyl)-5-(5-oxo-1,4-oxazepan-4-yl)-1H-benzo[d]imidazol-2(3H)-ylidene)benzamide], the IC50 (IRAK4) was ≤ 100 nM and the IC50 (IRAK1) was ≤ 100 nM.
In the case of CC1(C)C(=O)N(c2ccc3c(c2)[nH]/c(=N\C(=O)c2cccc(C(F)F)c2)n3CCCO)CCN1C1CC1 [Example 188, (E)-N-(5-(4-cyclopropyl-3,3-dimethyl-2-oxopiperazin-1-yl)-1-(3-hydroxypropyl)-1H-benzo[d]imidazol-2(3H)-ylidene)-3-(difluoromethyl)benzamide], the IC50 (IRAK4) is reported as ≤ 100 nM and the IC50 (IRAK1) is reported as ≤ 100 nM.
With O=C(/N=c1\[nH]c2cc(N3C(=O)COCC34CC4)ccc2n1CCCO)c1cccc(C(F)(F)F)c1 [Example 189, (E)-N-(1-(3-hydroxypropyl)-5-(5-oxo-7-oxa-4-azaspiro[2.5]octan-4-yl)-1H-benzo[d]imidazol-2(3H)-ylidene)-3-(trifluoromethyl)benzamide] the IC50 (IRAK4) was ≤ 100 nM and the IC50 (IRAK1) was ≤ 100 nM.
In the case of O=C(/N=c1\[nH]c2cc(N3C(=O)COCC34CC4)ccc2n1CCCO)c1cccc(C(F)F)c1 [Example 190, (E)-3-(difluoromethyl)-N-(1-(3-hydroxypropyl)-5-(5-oxo-7-oxa-4-azaspiro[2.5]octan-4-yl)-1H-benzo[d]imidazol-2(3H)-ylidene)benzamide], the IC50 (IRAK4) is reported as ≤ 100 nM and the IC50 (IRAK1) is reported as ≤ 100 nM.
With O=C(/N=c1\[nH]c2cc(N3CCN(C4CC4)CCC3=O)ccc2n1CCCO)c1cccc(C(F)(F)F)c1 [Example 191, (E)-N-(5-(4-cyclopropyl-7-oxo-1,4-diazepan-1-yl)-1-(3-hydroxypropyl)-1H-benzo[d]imidazol-2(3H)-ylidene)-3-(trifluoromethyl)benzamide] the IC50 (IRAK4) was ≤ 100 nM and the IC50 (IRAK1) was 100 to 1000 nM.
With O=C(/N=c1\[nH]c2cc(N3CCCN(C4CC4)CC3=O)ccc2n1CCCO)c1cccc(C(F)(F)F)c1 [Example 192, (E)-N-(5-(4-cyclopropyl-2-oxo-1,4-diazepan-1-yl)-1-(3-hydroxypropyl)-1H-benzo[d]imidazol-2(3H)-ylidene)-3-(trifluoromethyl)benzamide] the IC50 (IRAK4) was ≤ 100 nM and the IC50 (IRAK1) was 100 to 1000 nM.
In the case of O=C(/N=c1\[nH]c2cc(-n3ccccc3=O)ccc2n1CCCO)c1cccc(C(F)(F)F)c1 [Example 193, (E)-N-(1-(3-hydroxypropyl)-5-(2-oxopyridin-1(2H)-yl)-1H-benzo[d]imidazol-2(3H)-ylidene)-3-(trifluoromethyl)benzamide], the IC50 (IRAK4) is reported as ≤ 100 nM and the IC50 (IRAK1) is reported as 100 to 1000 nM.
With O=C(/N=c1\[nH]c2cc(-n3ccccc3=O)ccc2n1CCCO)c1cccc(C(F)F)c1 [Example 194, (E)-3-(difluoromethyl)-N-(1-(3-hydroxypropyl)-5-(2-oxopyridin-1(2H)-yl)-1H-benzo[d]imidazol-2(3H)-ylidene)benzamide] the IC50 (IRAK4) was ≤ 100 nM and the IC50 (IRAK1) was 100 to 1000 nM.
For CC1(C)C(=O)N(c2ccc3c(c2)[nH]/c(=N\C(=O)c2cccc(C(F)F)c2)n3CCCO)CCN1CCO [Example 195, (E)-3-(difluoromethyl)-N-(5-(4-(2-hydroxyethyl)-3,3-dimethyl-2-oxopiperazin-1-yl)-1-(3-hydroxypropyl)-1H-benzo[d]imidazol-2(3H)-ylidene)benzamide], the IC50 (IRAK4) was ≤ 100 nM and the IC50 (IRAK1) was 100 to 1000 nM.
For CC1(C)COC(=O)N1c1ccc2c(c1)[nH]/c(=N\C(=O)c1cccc(C(F)F)c1)n2CCCO [Example 196, (E)-3-(difluoromethyl)-N-(5-(4,4-dimethyl-2-oxooxazolidin-3-yl)-1-(3-hydroxypropyl)-1H-benzo[d]imidazol-2(3H)-ylidene)benzamide], the IC50 (IRAK4) was ≤ 100 nM and the IC50 (IRAK1) was 100 to 1000 nM.
For O=C(/N=c1\[nH]c2cc(N3C(=O)CN(C4CC4)CC34CC4)ccc2n1CCCO)c1cccc(C(F)(F)F)c1 [Example 197, (E)-N-(5-(7-cyclopropyl-5-oxo-4,7-diazaspiro[2.5]octan-4-yl)-1-(3-hydroxypropyl)-1H-benzo[d]imidazol-2(3H)-ylidene)-3-(trifluoromethyl)benzamide], the IC50 (IRAK4) was ≤ 100 nM and the IC50 (IRAK1) was ≤ 100 nM.
O=C(/N=c1\[nH]c2cc(N3C(=O)CN(C4CC4)CC34CC4)ccc2n1CCCO)c1cccc(C(F)F)c1 [Example 198, (E)-N-(5-(7-cyclopropyl-5-oxo-4,7-diazaspiro[2.5]octan-4-yl)-1-(3-hydroxypropyl)-1H-benzo[d]imidazol-2(3H)-ylidene)-3-(difluoromethyl)benzamide] was tested, and the IC50 (IRAK4) was ≤ 100 nM and the IC50 (IRAK1) was ≤ 100 nM.
CC1(C)CN(c2ccc3c(c2)[nH]/c(=N\C(=O)c2cccc(C(F)(F)F)c2)n3CCCO)C(=O)O1 [Example 199, (E)-N-(5-(5,5-dimethyl-2-oxooxazolidin-3-yl)-1-(3-hydroxypropyl)-1H-benzo[d]imidazol-2(3H)-ylidene)-3-(trifluoromethyl)benzamide] was tested, and the IC50 (IRAK4) was ≤ 100 nM and the IC50 (IRAK1) was 100 to 1000 nM.
CC1(C)CN(c2ccc3c(c2)[nH]/c(=N\C(=O)c2cccc(C(F)F)c2)n3CCCO)C(=O)O1 [Example 200, (E)-3-(difluoromethyl)-N-(5-(5,5-dimethyl-2-oxooxazolidin-3-yl)-1-(3-hydroxypropyl)-1H-benzo[d]imidazol-2(3H)-ylidene)benzamide] was tested, and the IC50 (IRAK4) was ≤ 100 nM and the IC50 (IRAK1) was 100 to 1000 nM.
With O=C(/N=c1\[nH]c2cc(-n3ncccc3=O)ccc2n1CCCO)c1cccc(C(F)(F)F)c1 [Example 201, (E)-N-(1-(3-hydroxypropyl)-5-(6-oxopyridazin-1(6H)-yl)-1H-benzo[d]imidazol-2(3H)-ylidene)-3-(trifluoromethyl)benzamide] the IC50 (IRAK4) was ≤ 100 nM and the IC50 (IRAK1) was ≤ 100 nM.
For [2H]C([2H])([2H])Oc1cc2c(cc1N1CCOCC1=O)[nH]/c(=N\C(=O)c1cccc(C(F)(F)F)c1)n2CCCO [Example 202, (E)-N-(1-(3-hydroxypropyl)-6-(trideuteromethoxy)-5-(3-oxomorpholino)-1H-benzo[d]imidazol-2(3H)-ylidene)-3-(trifluoromethyl)benzamide], the IC50 (IRAK4) was ≤ 100 nM and the IC50 (IRAK1) was ≤ 100 nM.
With [2H]C([2H])([2H])Oc1cc2c(cc1N1CCOCC1=O)[nH]/c(=N\C(=O)c1cccc(C(F)F)c1)n2CCCO [Example 203, (E)-3-(difluoromethyl)-N-(1-(3-hydroxypropyl)-6-(trideuteromethoxy)-5-(3-oxomorpholino)-1H-benzo[d]imidazol-2(3H)-ylidene)benzamide] the IC50 (IRAK4) was ≤ 100 nM and the IC50 (IRAK1) was ≤ 100 nM.
For [2H]C([2H])([2H])Oc1cc2c(cc1N1CCCOC1=O)[nH]/c(=N\C(=O)c1cccc(C(F)(F)F)c1)n2CCCO [Example 204, (E)-N-(1-(3-hydroxypropyl)-6-(trideuteromethoxy)-5-(2-oxo-1,3-oxazinan-3-yl)-1H-benzo[d]imidazol-2(3H)-ylidene)-3-(trifluoromethyl)benzamide], the IC50 (IRAK4) was ≤ 100 nM and the IC50 (IRAK1) was ≤ 100 nM.
With [2H]C([2H])([2H])Oc1cc2c(cc1N1CCCOC1=O)[nH]/c(=N\C(=O)c1cccc(C(F)F)c1)n2CCCO [Example 205, (E)-3-(difluoromethyl)-N-(1-(3-hydroxypropyl)-6-(trideuteromethoxy)-5-(2-oxo-1,3-oxazinan-3-yl)-1H-benzo[d]imidazol-2(3H)-ylidene)benzamide] the IC50 (IRAK4) was ≤ 100 nM and the IC50 (IRAK1) was ≤ 100 nM.
For COc1cc2c(cc1N1CCCOC1=O)[nH]/c(=N\C(=O)c1cccc(C(F)(F)F)c1)n2CCCO [Example 206, (E)-N-(1-(3-hydroxypropyl)-6-methoxy-5-(2-oxo-1,3-oxazinan-3-yl)-1H-benzo[d]imidazol-2(3H)-ylidene)-3-(trifluoromethyl)benzamide], the IC50 (IRAK4) was ≤ 100 nM and the IC50 (IRAK1) was ≤ 100 nM.
